Here are results for one compound from patent US20030065030A1, “Autonomic controlling agents and health drinks and foods” (priority 2001, published 2003).

This assay deals with 2DG hyperglycemic rats. Put plainly: anti-hyperglycemia in the 2DG hyperglycemic rats. The assay is classed as in vivo, rat. The conditions noted are these: 10 ng intracranially administered. From the text:
Since blood glucose levels are expected to be reduced when the activity of the autonomic nervous system is controlled by carnosine at a low dose, the effect of carnosine on anti-hyperglycemia in the 2DG hyperglycemic rats was investigated according to the method of Chun et al. (Brain Research 809:165-174, 1998). Wistar male rats (initial weight, about 250 g) were used that had been acclimated for at least 10 days to an environment in a room illuminated with an incandescent light of 80 lux on the average for 12 hours at room temperature (24 +/− 1° C.) with free access to the feed.
Three days before the experiment, rats under anesthesia with pentobarbital (35 mg/kg body weight, intraperitoneal administration) received the insertion of a cardiac catheter comprising a silastic tubing (Dow Corning, Midland, Mich.) and a polyethylene tubing (Clay Adams, Parsippany, N.J.) into the right atrium and a polyethylene tubing into the right lateral cerebral ventricle (LCV). On the day of the experiment, carnosine dissolved in physiological saline was administered to the rats intracranially (0.01 ml) or intraperitoneally (0.1 ml) with the simultaneous administration into the rat LCV of 80 μmol 2-deoxy-D-glucose (2DG, 0.01 ml). The control rats received physiological saline instead of carnosine and an artificial cerebrospinal fluid in stead of 2DG, each at the same amount.
Sixty minutes after the administration of 2DG into the LCV, 300 μl of blood was taken via the cardiac catheter and the plasma level of glucose was determined. The glucose concentrations in the plasma were measured using the Fuji-Dri-chem system (Fuji Film Tokyo) according to the glucose oxidase method. Changes in plasma concentrations of glucose were expressed as a ratio (%) relative to the control value at 90 minutes after 2DG administration set at 100. Four or five rats were used in the experiments. Data were tested with ANOVA (p<0.05) and were expressed as mean +/− standard error.

As for `Cn1cncc1C[C@H](NC(=O)CCN)C(=O)O` [anserine, reference compound], the effect on hyperglycemia entry is “did not suppress hyperglycemia”.
